{
  "source": "paper PMC4063695",
  "about": "“Design of Embedded-Hybrid Antimicrobial Peptides with Enhanced Cell Selectivity and Anti-Biofilm Activity” (PLoS ONE, 2014)",
  "key": {"E. coli ATCC25922 [1]": {"test_system": "E. coli ATCC25922", "assay": "MIC after treatment with serum, enzymes and heat", "type": "cell-based, Escherichia coli", "from_the_text": "(§1) E. coli ATCC25922, P. aeruginosa ATCC27853, S. aureus ATCC29213, S. epidermidis ATCC12228, S. faecalis ATCC29212 and B. subtilis CMCC63501 were obtained from the College of Veterinary Medicine, Northeast Agricultural University (Harbin, China), E. coli K88, E. coli CVCC1515 and P. aeruginosa ATCC15442 were bestowed by Prof. J.H. Wang (Gene Engineering Laboratory, Feed Research Institute, Chinese Academy of Agricultural Sciences Beijing, China) and E. coli UB1005 was kindly provided by Prof. Q.S. Qi (State Key Laboratory of Microbial Technology, Shandong University, China). […] Briefly, 50 µl of approximate 0.5–1 × 10^6 colony forming units (CFU)/ml of cells were diluted in Mueller-Hinton broth and distributed to 96-well plate, 50 µl of twofold peptides were added and the plates was incubated at 37°C for 18–24 h. The MIC values were calculated as the lowest peptide concentration that prevented visible turbidity and negative control of the pure broth without microbes. The tests were performed at least three times in duplicate.\n(§2) The stability of peptides was tested in the MIC assay in different environments, including salt sensitivity, human serum, thermal stability and susceptibility to enzymes. For salt sensitivity, 0.5–1 × 10^6 CFU/ml of P. aeruginosa ATCC27853 and E. coli ATCC25922 were treated with peptides, while different salts were added to MHB, and the final concentrations of physiological salts were as follows: 150 mM NaCl, 4.5 mM KCl, 1 mM MgCl2, 6 µM NH4Cl, 8 µM ZnCl2, 4 µM FeCl3 and […] [33]. Except salt sensitivity, only E. coli ATCC25922 was treated with peptides. […] For testing peptide sensitivity to the proteolytic enzymes, the peptides were incubated in advance at 37°C for 1 h with a 1 mg/ml final concentration of the proteolytic enzymes (trypsin, pepsin, papain and proteinase K). For testing thermal stability, incubation occurred at 100°C for 1 h. After these treatments, the procedures were same as MIC assay described above."}, "[2]": {"test_system": "Gram-negative and Gram-positive strains", "assay": "MIC over all tested strains (range, geometric mean)", "type": "cell-based", "set-up": "GM (geometric mean of MIC values from all microbial strains): unit not given here", "details": "all strains of Table 2", "from_the_text": "as §1"}, "E. coli ATCC25922 [3]": {"test_system": "E. coli ATCC25922", "assay": "MIC in the presence of physiological salts", "type": "cell-based, Escherichia coli", "set-up": "unit not given here", "from_the_text": "as §1, §2"}, "E. coli UB1005": {"test_system": "E. coli UB1005", "assay": "Cytoplasmic membrane electrical potential, diSC3-5", "type": "cell-based, Escherichia coli", "details": "diSC3-5 release over 600 s", "procedure": "Peptides could alter the electrical potential of cytoplasmic membrane, and this potential that was measured by using E. coli UB1005 cells and diSC3-5 (Sigma), a membrane potential-sensitive fluorescent dye, as previously described, [35]. E. coli UB1005 was cultured to logarithmic phase in MHB, harvested by centrifugation, washed twice with buffer (5 mM of HEPES and 20 mM of glucose, pH 7.4) and resuspended to an OD600 of 0.05 in the identical buffer. The dye (diSC3-5) was added to above buffer at a final concentration of 0.4 µM. And the bacteria were incubated to take up the dye for 90 min. KCl was added to a final concentration of 0.1 M for equilibrating K^+ concentration between extracellular and intracellular environment, and then the bacteria were incubated at room temperature for 10 min. The cell suspension (2 ml) was placed in a 1-cm cuvette, and the peptides were added to different concentrations. The fluorescence intensity changes were monitored by using an F-4500 fluorescence spectrophotometer (Hitachi, Japan) with an excitation wavelength of 622 nm and an emission wavelength of 670 nm."}, "[4]": {"assay": "Circular dichroism, secondary structure", "type": "physicochemical", "details": "150 µM peptide, 25°C, from [θ]222", "procedure": "The CD spectra were measured with a CD spectropolarimeter (Jasco, J-820, Tokyo, Japan) at 25°C, using a 0.1 cm path length rectangular quartz cell. The spectra were recorded at between 190 and 250 nm at 10 nm/min scanning speed. At least three scans were conducted for each peptide sample.\nThe acquired CD spectra were converted to the mean residue ellipticity through the following equation: [drawing 1]\nwhere θM is the mean residue ellipticity [deg.cm2.dmol-1], θobs is the observed ellipticity corrected for the buffer at a given wavelength [mdeg], c is the peptide concentration [mM], l is the path length [mm], and n is the number of amino acids.\nThe percentage of α-helical structure was calculated as followings: [drawing 2]\nwhere [θ]222 is the experimentally observed mean residue ellipticity at 222 nm, and values for [θ]^0 and [θ]^100 which correspond to 0 and 100% a-helix content at 222 nm, are estimated to be −2000 and −32000, respectively, [29]."}, "P. aeruginosa ATCC27853": {"test_system": "P. aeruginosa ATCC27853", "assay": "MIC in the presence of physiological salts", "type": "cell-based, Pseudomonas aeruginosa", "set-up": "unit not given here", "from_the_text": "as §1, §2"}, "[5]": {"details": "all kinds of salts in physiological concentrations"}},
  "note": "No end group written: not given here.",
  "data": [
    {"substance": "RFRRLFRIRVRVLKKI-NH2 [R-FV-I16]", "values": [
      {"measurement": "MIC, Serum 25%", "setting": "E. coli ATCC25922 [1]; E. coli ATCC25922, 25% human serum in MHB", "result": 4},
      {"measurement": "MIC, Serum 50%", "setting": "E. coli ATCC25922 [1]; E. coli ATCC25922, 50% human serum in MHB", "result": 16},
      {"measurement": "MIC, Heat 100°C", "setting": "E. coli ATCC25922 [1]; E. coli ATCC25922, peptide incubated at 100°C for 1 h", "result": 1},
      {"measurement": "MIC, Enzymes Caroid", "setting": "E. coli ATCC25922 [1]; E. coli ATCC25922, peptide pre-incubated 1 h at 37°C with 1 mg/ml enzyme (method names papain)", "result": 8},
      {"measurement": "MIC, Enzymes Pepsin", "setting": "E. coli ATCC25922 [1]; E. coli ATCC25922, peptide pre-incubated 1 h at 37°C with 1 mg/ml pepsin", "result": 8},
      {"measurement": "MIC, Enzymes Proteinase K", "setting": "E. coli ATCC25922 [1]; E. coli ATCC25922, peptide pre-incubated 1 h at 37°C with 1 mg/ml proteinase K", "result": ">128"},
      {"measurement": "MIC, Enzymes Trypsin", "setting": "E. coli ATCC25922 [1]; E. coli ATCC25922, peptide pre-incubated 1 h at 37°C with 1 mg/ml trypsin", "result": 4},
      {"measurement": "antimicrobial activity after heat (in words)", "setting": "E. coli ATCC25922 [1]; E. coli, incubation at 100°C for approximately 1 h", "result": "remained stable"},
      {"measurement": "GM (geometric mean of MIC values from all microbial strains)", "setting": "[2]", "result": 2},
      {"measurement": "MIC, FeCl3", "setting": "E. coli ATCC25922 [3]; 4 µM FeCl3 in MHB", "result": 1},
      {"measurement": "MIC, NH4Cl", "setting": "E. coli ATCC25922 [3]; 6 µM NH4Cl in MHB", "result": 1},
      {"measurement": "MIC, ZnCl2", "setting": "E. coli ATCC25922 [3]; 8 µM ZnCl2 in MHB", "result": 1},
      {"measurement": "MIC, MgCl2", "setting": "E. coli ATCC25922 [3]; 1 mM MgCl2 in MHB", "result": 4},
      {"measurement": "MIC, KCl", "setting": "E. coli ATCC25922 [3]; 4.5 mM KCl in MHB", "result": 1},
      {"measurement": "MIC, NaCl", "setting": "E. coli ATCC25922 [3]; 150 mM NaCl in MHB", "result": 4},
      {"measurement": "MIC, Mix", "setting": "E. coli ATCC25922 [3]; [5]", "result": 8},
      {"measurement": "MIC, CaCl2", "setting": "E. coli ATCC25922 [3]; in MHB", "result": 1},
      {"measurement": "MIC, Control", "setting": "E. coli ATCC25922 [3]; no added salts, unit not given", "result": 1},
      {"measurement": "cytoplasmic membrane depolarization (in words)", "setting": "E. coli UB1005", "result": "able to permeabilize the bacterial cell membrane even at a lower concentration than their MICs"},
      {"measurement": "α-helical content", "setting": "[4]; 30 mM SDS", "result": 36, "unit": "%"},
      {"measurement": "α-helical content", "setting": "[4]; 50% TFE", "result": 69, "unit": "%"},
      {"measurement": "MIC, CaCl2", "setting": "P. aeruginosa ATCC27853; 2.5 µM CaCl2 in MHB", "result": 4},
      {"measurement": "MIC, FeCl3", "setting": "P. aeruginosa ATCC27853; 4 µM FeCl3 in MHB", "result": 4},
      {"measurement": "MIC, NH4Cl", "setting": "P. aeruginosa ATCC27853; 6 µM NH4Cl in MHB", "result": 4},
      {"measurement": "MIC, ZnCl2", "setting": "P. aeruginosa ATCC27853; 8 µM ZnCl2 in MHB", "result": 4},
      {"measurement": "MIC, MgCl2", "setting": "P. aeruginosa ATCC27853; 1 mM MgCl2 in MHB", "result": 8},
      {"measurement": "MIC, KCl", "setting": "P. aeruginosa ATCC27853; 4.5 mM KCl in MHB", "result": 4},
      {"measurement": "MIC, NaCl", "setting": "P. aeruginosa ATCC27853; 150 mM NaCl in MHB", "result": 4},
      {"measurement": "MIC, Mix", "setting": "P. aeruginosa ATCC27853; [5]", "result": 16},
      {"measurement": "MIC, Control", "setting": "P. aeruginosa ATCC27853; no added salts, unit not given", "result": 4}
    ]}
  ]
}
